Results on 31 compounds are retold here after US9040525B2, “Cyclic amide derivative” (MOCHIDA PHARMACEUTICAL CO., LTD., priority 2010, dated 2015).

Usually EC50 stands for the midpoint of the concentration-response curve.

Counter-ions that a name gives are not always drawn. Bounds are passed on as bounds.

The target in the test is T1, GPR40 of human origin (Homo sapiens, UniProt O14842).
T1 construct: expressed in transfected cells
In words: Agonist action on GPR40 of human origin (Ca2+ fluorescence, CHO cell strain stably expressing GPR40). It counts as cell-based. Conditions: fluctuation of Ca2+ concentration. On the procedure: A CHO cell strain stably expressing GPR40 of human origin was used to determine the agonist action of a title compound. This cell strain was seeded in a clear bottom 96 well plate at 2×10^4 cells/100 μL/well. The cell strain was cultured in a CO2 incubator overnight using a Ham's F-12 medium containing a 10% fetal bovine serum, 100 U/mL penicillin, 0.1 mg/mL streptomycin, and 400 μg/mL. Geneticin. Calcium 4 Assay Kit (Molecular Devices) was used as a fluorescent calcium indicator. One mL of 77 mg/mL probenecid (Invitrogen) was added to 100 mL of a calcium indicator solution to prepare a solution (loading solution) mixed with a 20 mM HEPES-containing Hanks' balanced salt solution (HBSS) in equal proportions. To the cells from which the culture solution was removed, 200 μL of the loading solution was added, and the cells were cultured in a CO2 incubator for 1 hour. The title compound was diluted with a 20 mM HEPES-containing HBSS and was added to the cells by 50 μL, and the fluctuation of the Ca^2+concentration was measured by an intracellular ion analyzer. The EC50 value of the title compound was calculated using the dose-response curve of fluorescence intensity variation.

T1 sequence (O14842 whole entry): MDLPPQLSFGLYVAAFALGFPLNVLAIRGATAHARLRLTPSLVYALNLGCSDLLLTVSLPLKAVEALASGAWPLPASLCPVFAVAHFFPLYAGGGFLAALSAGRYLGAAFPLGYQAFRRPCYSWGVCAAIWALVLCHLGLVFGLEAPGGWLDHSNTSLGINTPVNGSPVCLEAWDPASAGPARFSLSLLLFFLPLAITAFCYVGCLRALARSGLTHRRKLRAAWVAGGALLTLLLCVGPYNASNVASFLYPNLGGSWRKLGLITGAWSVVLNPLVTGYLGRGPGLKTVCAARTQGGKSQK

Regarding `CCOCCOc1cc(C)c(-c2cccc(COc3ccc(C4CC(=O)N[S+]4[O-])cc3)c2)c(C)c1` (mixture of isomers) [Example 1, 5-[4-[[3-[4-(2-ethoxyethoxy)-2,6-dimethylphenyl]phenyl]methoxy]phenyl]-1-oxo-1,2-thi azolidin-3-one], the EC50 is below 300 nM. Next, `Cc1cc(OCC[C@@H](C)O)cc(C)c1-c1cccc(COc2ccc(C3CC(=O)N[S+]3[O-])cc2)c1` (mixture of isomers) [Example 12, 5-[4-[[3-[4-[(3R)-3-hydroxybutoxy]-2,6-dimethylphenyl]phenyl]methoxy]phenyl]-1-oxo-1,2-thiazolidin-3-one]: below 300 nM; `Cc1cc(OCCCS(C)(=O)=O)cc(C)c1-c1cccc(COc2ccc(C3CC(=O)NS3(=O)=O)cc2)c1` (racemic) [Example 19, 5-[4-[[3-[2,6-dimethyl 4-(3-methylsulfonylpropoxy)phenyl]phenyl]methoxy]phenyl]-1,1-dioxo-1,2-thiazolidin-3-one]: below 300 nM.

Take `Cc1cc(OCCC(C)(C)O)nc(C)c1-c1cccc(COc2ccc(C3CC(=O)NS3(=O)=O)cc2)c1` (racemic) [Example 20, 5-[4-[[3-[6-(3-hydroxy-3-methylbutoxy)-2,4-dimethylpyridin-3-yl]phenyl]methoxy]phenyl]-1,1-dioxo-1,2-thiazolidin-3-one]: the EC50 is 300 to 3000 nM. To `Cc1cccc(C)c1-c1cccc(COc2ccc(C3CC(=O)NS(=O)(=O)N3)cc2)c1` (racemic) [Example 21, 5-[4-[[3-(2,6-dimethylphenyl)phenyl]methoxy]phenyl]-1,1-dioxo-1,2,6-thiadiazinan-3-one] belongs below 300 nM; to `Cc1cccc(C)c1-c1cccc(COc2ccc(C3CC(=O)NS(=O)(=O)C3)cc2)c1` (racemic) [Example 22, 5-[4-[[3-(2,6-dimethylphenyl)phenyl]methoxy]phenyl]-1,1-dioxo-1,2-thiazinan-3-one], below 300 nM; to `Cc1nc(OCCC(C)(C)O)ccc1-c1cccc2c1CC[C@H]2Oc1ccc(C2CC(=O)N[S+]2[O-])cc1` (single isomer, unassigned) [23(A)-b], 300 to 3000 nM. Consider `Cc1cc(OCCC(C)(C)O)cc(C)c1-c1cccc2c1CC[C@H]2Oc1ccc(C2CC(=O)N[S+]2[O-])cc1` (single isomer, unassigned) [24(A)-a], for which the half-maximal effective concentration (EC50) was below 300 nM. To `CCOCCOc1cc(C)c(-c2cccc(COc3ccc(C4CC(=O)N[S+]4[O-])cc3)c2)c(C)c1F` (stereo not shown) [Example 2, 5-[4-[[3-[4-(2-ethoxyethoxy)-3-fluoro-2,6-dimethylphenyl]phenyl]methoxy]phenyl]-1-oxo-1,2-thiazolidin-3-one] belongs below 300 nM; to `Cc1cc(OCCC(C)(C)O)c(F)c(C)c1-c1cccc(COc2ccc(C3CC(=O)N[S+]3[O-])cc2)c1` (stereo not shown) [Example 3, 5-[4-[[3-[3-fluoro-4-(3-hydroxy-3-methylbutoxy)-2,6-dimethylphenyl]phenyl]methoxy]phenyl]-1-oxo-1,2-thiazolidin-3-one], below 300 nM. To `Cc1cc(OCCC(C)(C)O)cc(C)c1-c1cccc(COc2ccc(C3CC(=O)N[S+]3[O-])cc2)c1` (stereo not shown) [Example 4, 5-[4-[[3-[4-(3-hydroxy-3-methylbutoxy)-2,6-dimethylphenyl]phenyl]methoxy]phenyl]-1-oxo-1,2-thiazolidin-3-one] belongs below 300 nM. To `Cc1cc(OCCCS(C)(=O)=O)nc(C)c1-c1cccc(COc2ccc(C3CC(=O)N[S+]3[O-])cc2)c1` (stereo not shown) [Example 5, 5-[4-[[3-[2,4-dimethyl-6-(3-methylsulfonylpropoxy)pyridin-3-yl]phenyl]methoxy]phenyl]-1-oxo-1,2-thiazolidin-3-one] belongs below 300 nM; to `Cc1cc(OCCC(C)(C)O)nc(C)c1-c1cccc(COc2ccc(C3CC(=O)N[S+]3[O-])cc2)c1` (stereo not shown) [Example 6, 5-[4-[[3-[6-(3-hydroxy-3-methylbutoxy)-2,4-dimethylpyridin-3-yl]phenyl]methoxy]phenyl]-1-oxo-1,2-thiazolidin-3-one], below 300 nM; to `Cc1cc(-c2cccc(COc3ccc(C4CC(=O)N[S+]4[O-])cc3)c2)c(C)cc1OCCC(C)(C)O` (stereo not shown) [Example 7, 5-[4-[[3-[4-(3-hydroxy-3-methylbutoxy)-2,5-dimethylphenyl]phenyl]methoxy]phenyl]-1-oxo-1,2-thiazolidin-3-one], below 300 nM. As to `Cc1cc(OCCCO)cc(C)c1-c1cccc(COc2ccc(C3CC(=O)N[S+]3[O-])cc2)c1` (stereo not shown) [Example 8, 5-[4-[[3-[4-(3-hydroxypropoxy)-2,6-dimethylphenyl]phenyl]methoxy]phenyl]-1-oxo-1,2-thiazolidin-3-one], the EC50 was below 300 nM. To `Cc1cc(OC[C@H](O)CO)cc(C)c1-c1cccc(COc2ccc(C3CC(=O)N[S+]3[O-])cc2)c1` (stereo partly drawn) [Example 9, 5-[4-[[3-[4-[(2R)-2,3-dihydroxypropoxy]-2,6-dimethylphenyl]phenyl]methoxy]phenyl]-1-oxo-1,2-thiazolidin-3-one] belongs below 300 nM; to `Cc1cc(OCC(CO)CO)cc(C)c1-c1cccc(COc2ccc(C3CC(=O)N[S+]3[O-])cc2)c1` (stereo not shown) [Example 10, 5-[4-[[3-[4-[3-hydroxy-2-(hydroxymethyl)propoxy]-2,6-dimethylphenyl]phenyl]methoxy]phenyl]-1-oxo-1,2-thiazolidin-3-one], below 300 nM. Next, `Cc1cc(OCCCN)cc(C)c1-c1cccc(COc2ccc(C3CC(=O)N[S+]3[O-])cc2)c1` (stereo not shown) [Example 11, 5-[4-[[3-[4-(3-aminopropoxy)-2,6-dimethylphenyl]phenyl]methoxy]phenyl]-1-oxo-1,2-thiazolidin-3-one trifluoroacetic acid salt]: below 300 nM; `Cc1cc(OCCCS(C)(=O)=O)cc(C)c1-c1cccc(COc2ccc(C3CC(=O)N[S+]3[O-])cc2)c1` (stereo not shown) [Example 13, 5-[4-[[3-[2,6-dimethyl 4-(3-methylsulfonylpropoxy)phenyl]phenyl]methoxy]phenyl]-1-oxo-1,2-thiazolidin-3-one]: below 300 nM. To `Cc1cccc(C)c1-c1cccc(COc2ccc(N3CC(=O)NS3(=O)=O)cc2)c1` [Example 14, 5-[4-[[3-(2,6-dimethylphenyl)phenyl]methoxy]phenyl]-1,1-dioxo-1,2,5-thiadiazolidin-3-one] belongs below 300 nM; to `Cc1cc(OCCCS(C)(=O)=O)cc(C)c1-c1cccc(COc2ccc(N3CC(=O)NS3(=O)=O)cc2)c1` [Example 15, 5-[4-[[3-[2,6-dimethyl-4-(3-methylsulfonylpropoxy)phenyl]phenyl]methoxy]phenyl]-1,1-dioxo-1,2,5-thiadiazolidin-3-one], 300 to 3000 nM; to `Cc1cccc(C)c1-c1cccc(COc2ccc(N3CC(=O)NS3(=O)=O)c(Cl)c2)c1` [Example 16, 5-[2-chloro-4-[[3-(2,6-dimethylphenyl)phenyl]methoxy]phenyl]-1,1-dioxo-1,2,5-thiadiazolidin-3-one], below 300 nM. As to `Cc1cc(OCc2cccc(-c3c(C)cccc3C)c2)ccc1N1CC(=O)NS1(=O)=O` [Example 17, 5-[4-[[3-(2,6-dimethylphenyl)phenyl]methoxy]-2-methylphenyl]-1,1-dioxo-1,2,5-thiadiazolidin-3-one], the concentration for a half-maximal effect (EC50) was below 300 nM. Next, `Cc1cccc(C)c1-c1cccc(COc2ccc(N3C(C)C(=O)NS3(=O)=O)cc2)c1` (stereo not shown) [Example 18, 5-[4-[[3-(2,6-dimethylphenyl)phenyl]methoxy]phenyl]-4-methyl-1,1-dioxo-1,2,5-thiadiazolidin-3-one]: 300 to 3000 nM. Next, `N#Cc1ccc(Oc2cccc3c2CC[C@H]3Oc2ccc(C3CC(=O)NS(=O)(=O)N3)cc2)cc1` (stereo partly drawn) [Example 26, 4-(((1R)-1-(4-(1,1-dioxo-1,2,6-thiadiazinan-3-on-5-yl)phenoxy)-2,3-dihydro-1H-inden-4-yl)oxy)benzonitrile]: below 300 nM; `O=C1CC(c2ccc(O[C@@H]3CCc4c(Oc5ccccc5)cccc43)cc2)[S+]([O-])N1` (stereo partly drawn) [Example 27, 5-(4-(((R)-4-phenoxy-2,3-dihydro-1H-inden-1-yl)oxy)phenyl)-1-oxo-1,2-thiazolidin-3-one]: below 300 nM.

As for `O=C1CC(c2ccc(OC3COc4c3cccc4C(F)(F)F)cc2)[S+]([O-])N1` (stereo not shown) [Example 28], the 50% effective concentration (EC50) lay within 300 to 3000 nM. Next, `O=C1CC(c2ccc(O[C@@H]3CCc4c(Br)cccc43)cc2)[S+]([O-])N1` (stereo partly drawn) [Example 29, 5-(4-(((R)-4-bromo-2,3-dihydro-1H-inden-1-yl)oxy)phenyl)-1-oxo-1,2-thiazolidin-3-one]: below 300 nM; `Cc1cc(OCCCS(C)(=O)=O)cc(C)c1-c1cccc(COc2ccc(C3CC(=O)NS(=O)(=O)C3)cc2)c1` (stereo not shown) [Example 31, 5-[4-[[3-[2,6-dimethyl 4-(3-methylsulfonylpropoxy)phenyl]phenyl]methoxy]phenyl]-1,1-dioxo-1,2-thiazinan-3-one]: below 300 nM; `N#Cc1ccc(Oc2cccc3c2CC[C@H]3Oc2ccc(C3CC(=O)NS(=O)(=O)C3)cc2)cc1` (stereo partly drawn) [Example 32, 4-(((1R)-1-(4-(1,1-dioxo-3-oxo-1,2-thiazinan-5-yl)phenoxy)-2,3-dihydro-1H-inden-4-yl)oxy)benzonitrile]: below 300 nM. To `O=C1CC(c2ccc(O[C@@H]3CCc4c(Br)cccc43)cc2)CS(=O)(=O)N1` (stereo partly drawn) [Example 33, 5-(4-(((R)-4-bromo-2,3-dihydro-1H-inden-1-yl)oxy)phenyl)-1,1-dioxo-1,2-thiazinan-3-one] belongs below 300 nM.
